US20050209232A1, “Pyridazinone ureas as antagonists of alpha4 integrins” (priority 2004, published 2005)

Tests used:
α4β1 = target: T1, α4β1 (Homo sapiens, UniProt P05556+P13612); assay: Ramos Cell Adhesion Assay (α4β1 Mediated Adhesion/VCAM-1); assay type: cell-based; conditions: Ramos cells adhering to recombinant hVCAM-1
T1 construct: Ramos cells, (50 μL at 2×10^6/mL) labeled with 5 μM Calcein AM; endogenous in cells; host or cells: Ramos cells
Description: Ramos Cell Adhesion Assay (α4β1 Mediated Adhesion/VCAM-1)
Immulon 96 well plates (Dynex) were coated with 100 μL recombinant hVCAM-1 at 4.0 μg/mL in 0.05 M NaCO3 buffer pH 9.0 overnight at 4° C. (R&D Systems). Plates were washed 2 times in PBS with 1% BSA and blocked for 1 h@room temperature in this buffer. PBS was removed and compounds to be tested (50 μL) were added at 2× concentration. Ramos cells, (50 μL at 2×10^6/mL) labeled with 5 μM Calcein AM (Molecular Probes) for 1 h at 37° C., were added to each well and allowed to adhere for 1 h at room temperature. Plates were washed 4 × in PBS+1% BSA and cells were lysed for 15 minutes in 100 μL of 1 M Tris pH 8.0 with 1% SDS. The plate was read at 485 nm excitation and 530 nm emission.

Balb/c mice = assay: In Vivo Model for Leukocytosis; design: species or system mouse; conditions: bled 1-1.5 h after administration
Text: In Vivo Model for Leukocytosis
Leukocytosis the increase in circulating white blood cells (leukocytes). This can be brought about by preventing leukocyte binding to integrin counter-receptor adhesion molecules expressed on high endothelial venules. This cell adhesion occurs between immunoglobulin superfamily molecules and integrins. Relevant examples of these paired interactions include Intracellular Adhesion Molecule-1 and AlphaL Beta2 integrin, Vascular Cell Adhesion Molecule-1 and α4β1 integrin, and Mucosal Addressin Cell Adhesion Molecule-1 and α4β7 integrin, respectively.
In this model, a compound that antagonizes these leukocyte-endothelial interactions will cause an increase in circulating leukocytes, defined as leukocytosis, as measured at 1-1.5 h post-administration. This leukocytosis is indicative that normal lymphocyte or leukocyte emigration from the peripheral circulation was prevented. Similar emigration of cells out of the circulation into inflamed tissues is responsible for the progression and maintainance of the inflammatory state. Leukocytosis is an indication that lymphocyte and leukocyte extravasation is prevented, and is predictive of general anti-inflammatory activity.
One week prior to being tested, 7-10 week old female Balb/c mice, n=8 per group, were bled and randomized according to leukocyte counts. One week later, the mice were adminstered test compound orally or subcutaneously and then bled 1-1.5 h after drug administration, approximately 1 h after the peak blood concentration of the compound has occurred. Whole blood, 250-350 microliters, was collected from each mouse into potassium-EDTA […] collection tubes (Becton-Dickenson) and mixed to prevent clotting.
Cell counts and differential counts on the whole blood preparation were performed using an Advia 120 Hematology System (Bayer Diagnostics). Cell counts as total leukocytes and as total lympohcytes were made and compared to counts made from mice dosed with vehicle only. Data were reported as percent of vehicle control for lymphocyte counts and total leukocyte counts.
Statistical analyses were performed using ANOVA with Dunnet's multiple comparison test.

human α4β7 integrin = target: T2, human α4β7 integrin (Homo sapiens, UniProt P13612+P26010); assay: α4β7-K562 Cell Adhesion Assay (α4β7 Mediated Adhesion/MAdCAM-1); assay type: cell-based; conditions: K562 cells expressing human α4β7 adhering to FLAG-hMAdCAM-1, 1 mM Mn2+
T2 construct: expressed in transfected cells; host or cells: K562 cells, stably transfected
T2 sequence (P13612 34-1032): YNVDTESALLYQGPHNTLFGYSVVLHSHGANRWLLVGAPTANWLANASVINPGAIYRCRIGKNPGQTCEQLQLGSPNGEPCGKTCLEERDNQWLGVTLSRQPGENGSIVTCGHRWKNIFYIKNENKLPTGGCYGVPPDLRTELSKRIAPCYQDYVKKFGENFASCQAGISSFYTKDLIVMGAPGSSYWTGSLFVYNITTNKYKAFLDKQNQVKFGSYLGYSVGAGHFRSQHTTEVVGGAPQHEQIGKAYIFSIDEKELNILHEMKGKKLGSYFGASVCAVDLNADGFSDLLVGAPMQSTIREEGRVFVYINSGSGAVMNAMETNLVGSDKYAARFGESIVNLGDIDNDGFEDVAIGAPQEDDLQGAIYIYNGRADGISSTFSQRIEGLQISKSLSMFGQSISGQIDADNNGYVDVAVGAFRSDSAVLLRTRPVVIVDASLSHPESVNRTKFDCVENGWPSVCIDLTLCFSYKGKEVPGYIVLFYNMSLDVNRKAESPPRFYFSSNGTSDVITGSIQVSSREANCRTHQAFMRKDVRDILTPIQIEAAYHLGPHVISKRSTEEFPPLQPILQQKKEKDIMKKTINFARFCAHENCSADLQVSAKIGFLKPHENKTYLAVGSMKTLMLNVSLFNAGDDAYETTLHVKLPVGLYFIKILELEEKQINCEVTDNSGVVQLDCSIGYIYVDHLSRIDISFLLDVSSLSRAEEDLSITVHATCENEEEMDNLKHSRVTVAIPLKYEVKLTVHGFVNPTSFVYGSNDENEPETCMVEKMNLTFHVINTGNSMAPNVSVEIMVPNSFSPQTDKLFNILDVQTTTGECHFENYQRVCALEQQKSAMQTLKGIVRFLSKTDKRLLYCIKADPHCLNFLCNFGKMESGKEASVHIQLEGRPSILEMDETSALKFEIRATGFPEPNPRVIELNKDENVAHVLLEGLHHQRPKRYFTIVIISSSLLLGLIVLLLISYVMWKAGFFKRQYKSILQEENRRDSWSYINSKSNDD
T2 sequence (P26010 20-798): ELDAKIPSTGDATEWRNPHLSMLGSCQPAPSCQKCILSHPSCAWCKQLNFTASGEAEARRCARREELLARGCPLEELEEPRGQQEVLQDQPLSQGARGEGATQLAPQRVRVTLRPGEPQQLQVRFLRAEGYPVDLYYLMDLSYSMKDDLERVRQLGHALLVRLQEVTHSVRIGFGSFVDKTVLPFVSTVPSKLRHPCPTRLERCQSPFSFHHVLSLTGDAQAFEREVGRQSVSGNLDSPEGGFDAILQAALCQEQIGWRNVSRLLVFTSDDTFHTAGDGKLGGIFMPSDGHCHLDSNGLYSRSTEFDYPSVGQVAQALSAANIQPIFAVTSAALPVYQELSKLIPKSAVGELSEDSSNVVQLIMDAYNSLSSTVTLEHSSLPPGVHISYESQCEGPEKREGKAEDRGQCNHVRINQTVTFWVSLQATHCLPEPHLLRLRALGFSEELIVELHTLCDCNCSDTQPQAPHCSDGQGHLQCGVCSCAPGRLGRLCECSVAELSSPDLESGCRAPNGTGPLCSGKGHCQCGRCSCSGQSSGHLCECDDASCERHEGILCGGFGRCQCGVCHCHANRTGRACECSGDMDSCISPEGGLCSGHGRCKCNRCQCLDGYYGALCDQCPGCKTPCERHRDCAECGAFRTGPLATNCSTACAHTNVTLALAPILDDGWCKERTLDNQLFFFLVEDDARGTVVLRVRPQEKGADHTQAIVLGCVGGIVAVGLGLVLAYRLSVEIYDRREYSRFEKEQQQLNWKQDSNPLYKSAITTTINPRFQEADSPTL
Description: α4β7-K562 Cell Adhesion Assay (α4β7 Mediated Adhesion/MAdCAM-1)
M2 anti-FLAG Antibody Coated 96-well plates (Sigma) were coated for 1 hour at 4° C. with 2-8 μL/well recombinant FLAG-hMAdCAM-1 contained in 100 μL of Dulbecco's PBS, pH 7.4, with 1% BSA and 1 mM Mn^2+ (PBS-BSA-Mn). Plates were washed once with PBS-BSA-Mn. Buffer was removed and compounds to be tested (50 μL) were added at 2× concentration. Stably transfected K562 cells expressing human α4β7 integrin, (50 μL at 2×10^6/mL) that had been labeled with 100 μg/mL carboxymethyl fluorescein diacetate succinimidyl ester (CFDA-SE; Molecular Probes) for 15 min at 37° C. were added to each well and allowed to adhere for 1 h at room temperature. Plates were washed 4× in PBS-BSA-Mn and then cells were lysed for 2 min by addtion of 100 μL of PBS without Ca^2+, Mg^2+ supplemented with 0.1 M NaOH. The plate was read on a 96-well fluorescent plate reader at 485 nm excitation and 530 nm emission.

T1 sequence (P05556 21-798, one chain of several): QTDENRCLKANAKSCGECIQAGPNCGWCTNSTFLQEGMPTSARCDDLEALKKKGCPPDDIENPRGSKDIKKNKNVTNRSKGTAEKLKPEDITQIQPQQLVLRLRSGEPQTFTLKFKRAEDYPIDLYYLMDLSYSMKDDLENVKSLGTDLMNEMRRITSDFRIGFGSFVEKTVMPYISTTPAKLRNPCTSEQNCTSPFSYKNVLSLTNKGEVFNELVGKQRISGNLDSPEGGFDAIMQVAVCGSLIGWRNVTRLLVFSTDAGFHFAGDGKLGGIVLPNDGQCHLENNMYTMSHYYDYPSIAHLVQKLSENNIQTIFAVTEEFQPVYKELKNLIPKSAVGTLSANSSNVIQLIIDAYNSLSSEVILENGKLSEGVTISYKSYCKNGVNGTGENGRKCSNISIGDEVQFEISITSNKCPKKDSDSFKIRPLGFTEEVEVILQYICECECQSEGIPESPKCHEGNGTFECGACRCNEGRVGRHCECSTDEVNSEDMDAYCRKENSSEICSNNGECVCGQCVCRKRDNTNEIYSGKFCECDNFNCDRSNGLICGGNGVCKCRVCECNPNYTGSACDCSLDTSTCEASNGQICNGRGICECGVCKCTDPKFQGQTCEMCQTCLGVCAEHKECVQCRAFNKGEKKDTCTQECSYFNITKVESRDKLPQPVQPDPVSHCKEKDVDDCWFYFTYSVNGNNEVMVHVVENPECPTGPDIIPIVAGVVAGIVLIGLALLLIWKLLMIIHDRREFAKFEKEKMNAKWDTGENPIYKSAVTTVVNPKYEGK

Row | SMILES | IC50 (α4β1) | IC50 (human α4β7 integrin) | also measured
1 | COc1cnn(C)c(=O)c1-c1ccc(C[C@H](NC(=O)N(C)CC(C)C)C(=O)O)cc1 [Cpd 13] | 1750 nM | 17 nM | Lymphoycte Counts % of Vehicle Control (Balb/c mice; 3 mg/kg sc): 84.4 % of Vehicle Control; Total Leukocyte Count % of Vehicle Control (Balb/c mice; 3 mg/kg sc): 84.4 % of Vehicle Control; Lymphoycte Counts % of Vehicle Control (Balb/c mice; 10 mg/kg sc): 133.6 % of Vehicle Control; Total Leukocyte Count % of Vehicle Control (Balb/c mice; 10 mg/kg sc): 133.5 % of Vehicle Control; Lymphoycte Counts % of Vehicle Control (Balb/c mice; 30 mg/kg sc): 154.3 % of Vehicle Control; Total Leukocyte Count % of Vehicle Control (Balb/c mice; 30 mg/kg sc): 149.5 % of Vehicle Control
2 | COc1cnn(CCO)c(=O)c1-c1ccc(C[C@H](NC(=O)Nc2c(Cl)cccc2Cl)C(=O)O)cc1 [Cpd 2] | 2870 nM | 28 nM | –
3 | COc1cnn(C)c(=O)c1-c1ccc(C[C@H](NC(=O)N(c2ccccc2)C(C)C)C(=O)O)cc1 [Cpd 42] | > 5000 nM | 92 nM | –
4 | COc1cnn(CCO)c(=O)c1-c1ccc(C[C@H](NC(=O)NC2CCCCC2)C(=O)O)cc1 [Cpd 3] | > 5000 nM | 311 nM | –
5 | COc1cnn(C)c(=O)c1-c1ccc(C[C@H](NC(=O)N(C)CC(C)C)C(=O)OCCO)cc1 [Cpd 21, 2-(3-Isobutyl-3-methyl-ureido)-3-[4-(5-methoxy-2-methyl-3-oxo-2,3-dihydro-pyridazin-4-yl)-phenyl]-propionic acid 2-hydroxy-ethyl ester] | > 5000 nM | 2900 nM | Lymphoycte Counts % of Vehicle Control (Balb/c mice; 3 mg/kg po): 148.1 % of Vehicle Control; Total Leukocyte Count % of Vehicle Control (Balb/c mice; 3 mg/kg po): 121.9 % of Vehicle Control; Lymphoycte Counts % of Vehicle Control (Balb/c mice; 10 mg/kg po): 156.8 % of Vehicle Control; Total Leukocyte Count % of Vehicle Control (Balb/c mice; 10 mg/kg po): 118.7 % of Vehicle Control; Lymphoycte Counts % of Vehicle Control (Balb/c mice; 30 mg/kg po): 189.6 % of Vehicle Control; Total Leukocyte Count % of Vehicle Control (Balb/c mice; 30 mg/kg po): 131.0 % of Vehicle Control
6 | COc1cnn(C)c(=O)c1-c1ccc(CC(NC(=O)N2CCCC2CO)C(=O)O)cc1 (stereo not drawn) [Cpd 8, 2-[(2-Hydroxymethyl-pyrrolidine-1-carbonyl)-amino]-3-[4-(5-methoxy-2-methyl-3-oxo-2,3-dihydro-pyridazin-4-yl)-phenyl]-propionic acid] | > 5000 nM | 341 nM | –
7 | CCN(C(=O)N[C@@H](Cc1ccc(-c2c(OC)cnn(C)c2=O)cc1)C(=O)O)c1cc(O)ccc1C [Cpd 44] | > 5000 nM | 24 nM | –
8 | COc1cnn(C)c(=O)c1-c1ccc(C[C@H](NC(=O)N(Cc2ccccc2)CC(C)C)C(=O)O)cc1 [Cpd 18] | 2650 nM | 395 nM | –
9 | COc1cnn(C)c(=O)c1-c1ccc(C[C@H](NC(=O)N2CCC(O)C2)C(=O)O)cc1 (mixture of isomers) [Cpd 6] | > 5000 nM | 380 nM | –
10 | COc1cnn(C)c(=O)c1-c1ccc(C[C@H](NC(=O)N2CCCCC2C)C(=O)O)cc1 (mixture of isomers) [Cpd 28] | 1800 nM | 29 nM | –
11 | CC#CCN(Cc1ccco1)C(=O)N[C@@H](Cc1ccc(-c2c(OC)cnn(C)c2=O)cc1)C(=O)O [Cpd 31] | > 5000 nM | 414 nM | –
12 | COc1cnn(CCO)c(=O)c1-c1ccc(C[C@H](NC(=O)Nc2ccccc2F)C(=O)O)cc1 [Cpd 4] | > 5000 nM | 2780 nM | –
13 | COc1cnn(C)c(=O)c1-c1ccc(C[C@H](NC(=O)N(C)CCO)C(=O)O)cc1 [Cpd 14] | > 5000 nM | 94 nM | –
14 | COc1cnn(C)c(=O)c1-c1ccc(C[C@H](NC(=O)N(Cc2cccnc2)C2CN3CCC2CC3)C(=O)O)cc1 (mixture of isomers) [Cpd 40] | > 5000 nM | 1010 nM | –
15 | COc1cnn(C)c(=O)c1-c1ccc(C[C@H](NC(=O)N(C(C)C)C2CCCCC2)C(=O)O)cc1 [Cpd 33] | > 5000 nM | 310 nM | –
